Source: PubChem BioAssay (NCI)
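Results reflect a 48-hour exposure of cells in 96-well plates to compound at five concentrations. Abbreviation: GI50, concentration required for 50% inhibition of growth. At the TGI there is no net growth.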

Experiments:
Assay in all cases: NCI-60 cell line screen, 48 h
MDA-MB-231 breast = tested on: MDA-MB-231 breast
HOP-62 NSCLC = tested on: HOP-62 NSCLC
KM12 colon = tested on: KM12 colon
SF-539 CNS = tested on: SF-539 CNS
A549 NSCLC = tested on: A549 NSCLC
ACHN renal = tested on: ACHN renal
SK-MEL-5 melanoma = tested on: SK-MEL-5 melanoma
T-47D breast = tested on: T-47D breast
PC-3 prostate = tested on: PC-3 prostate
MOLT-4 leukemia = tested on: MOLT-4 leukemia

| Compound | GI50 (MDA-MB-231 breast) [µM] | TGI (MDA-MB-231 breast) [µM] | GI50 (HOP-62 NSCLC) [µM] | TGI (HOP-62 NSCLC) [µM] | GI50 (KM12 colon) [µM] | TGI (KM12 colon) [µM] | GI50 (SF-539 CNS) [µM] | TGI (SF-539 CNS) [µM] | GI50 (A549 NSCLC) [µM] | TGI (A549 NSCLC) [µM] | GI50 (ACHN renal) [µM] | TGI (ACHN renal) [µM] | GI50 (SK-MEL-5 melanoma) [µM] | TGI (SK-MEL-5 melanoma) [µM] | GI50 (T-47D breast) [µM] | TGI (T-47D breast) [µM] | GI50 (PC-3 prostate) [µM] | TGI (PC-3 prostate) [µM] | GI50 (MOLT-4 leukemia) [µM] | TGI (MOLT-4 leukemia) [µM] |
| --- | --- | --- | --- | --- | --- | --- | --- | --- | --- | --- | --- | --- | --- | --- | --- | --- | --- | --- | --- | --- |
| O[C@H]1CO[C@H]2[C@@H]1OC[C@@H]2Oc1ccc(Nc2ccnc(Nc3ccc(O[C@H]4CO[C@H]5[C@@H]4OC[C@@H]5O)c(Cl)c3)n2)cc1Cl | 1.81 | 6.04 | 1.71 | 4.03 | 1.36 | 3.48 | 2.22 | 7.16 | 2.84 | 11.5 | 2.8 | 10.6 | 1.17 | 2.43 | 0.456 | 2.89 | 2.26 | 11.2 | 1.72 | 6.04 |
| O=C(c1ccccc1)C(CN1CCOCC1)c1ccccc1 (stereo not given) | 1.83 | 5.05 | 6.5 | 19.7 | 1.8 | 3.73 | 2.11 | 4.47 | 3.94 | 14.9 | 1.3 | 2.71 | 1.76 | 3.77 | 3 | 9.87 | 2.93 | 13.3 | 2.24 | 6.43 |
| COc1cccc(NC(=O)c2sc3nc4c(cc3c2N)CN(Cc2ccccc2)CC4)c1 | 11.4 | 75.3 | 1.83 | 6.47 | 11.8 | 40.3 | 1.99 | 6.56 | 3.79 | 53.8 | 3.46 | 64.5 | 2.15 | 31.9 | 4.62 | 47.3 | 11.6 | 91.1 | 21.9 | > 100 |
| CN(C)CCCN1c2ccccc2CCc2ccc(Cl)cc21 | 3.06 | 12 | 10.8 | 23.3 | 3.77 | 13.6 | 5.59 | 17.7 | 9.27 | 23.2 | 3.81 | 13.5 | 1.54 | 2.9 | 3.26 | 10.6 | 2.98 | 15.4 | 3.07 | 11.1 |
| Cc1ccc(C2=NOC3=c4ccccc4=CSC3=C2c2ccc([N+](=O)[O-])cc2)cc1 | 8.59 | 28 | 13.6 | 55.8 | 61.1 | > 100 | 7.18 | 25.4 | 24.5 | > 100 | 13.8 | 61.4 | 11.4 | 37.6 | 5.22 | 47.1 | 14.3 | 65.3 | > 100 | > 100 |
| COc1ccc(C(OCC2OC(n3ccc(NC(=O)c4ccccc4)nc3=O)C(O)C2O)(c2ccccc2)c2ccccc2)cc1 (stereo not given) | – | 4.05 | – | 4 | – | 38.5 | – | 3.94 | – | 14.9 | – | 7.59 | – | 3.32 | – | 9.42 | – | 8.28 | – | 4.17 |
